Key:
Tomato (variety: REGINA) = conditions: in vivo
[1] = system: Paddy rice (variety: KOSHIHIKARI); conditions: in vivo
[2] = system: Cucumber (variety: SAGAMI HANPAKU); experiment: Phytotoxicity studied in Test Example 2; format: in vivo; conditions: 500 ppm, foliage spray
Experimental: Cucumber (variety: SAGAMI HANPAKU) was cultivated in a plastic pot of 4 cm diameter. A diluted solution of an active compound of the prescribed concentration, prepared in a similar manner as in the above-mentioned Test Example 1, was sprayed to seedlings reached to cotyledon in an amount of 6 ml per 3 pots. One day after the spraying, a suspension of spores, prepared by washing spores of Sphaerotheca fuliginea taken from previously infected cucumber into distilled water, was inoculated to the plant to be treated by spraying (once) and infected in a green house. Seven days after the inoculation, the contraction rate per pot was classified and evaluated to obtain the controlling value (%). Phytotoxicity was also studied at the same time. This test is an average of the results of 1 section 3 pots.

[3] = system: nursery stock (variety: OREGON SUPER DELICIOUS) leaves; experiment: Phytotoxicity studied in Test Example 4; format: in vivo; conditions: 500 ppm, spray on detached leaves of nursery stock
Experimental: A nursery stock (variety: OREGON SUPER DELICIOUS) was cultivated in a plastic pot of 30 cm diameter and its leaves, which had reached at perfect extension stage, were detached from the petiole, were cultivated under hydroponic condition by using a water-holding carrier. After that, a diluted solution of an active compound of the prescribed concentration, prepared in a similar manner as in the above-mentioned Test Example 1, was sprayed to the leaves in an amount of 6 ml per 3 leaves. One day after the spraying, a suspension of spores of artificially cultured Alternaria mali was inoculated to the leaves by spraying (once) and infected by transferring them into a moisturizing box and keeping at 20° C. Four days after the inoculation, the contraction rate per pot was classified and evaluated according to the following standard and the controlling value (%) was obtained. Phytotoxicity was also studied at the same time. This test is an average of the results of 1 section 3 leaves.

SMILES	Phytotoxicity [1]	Phytotoxicity [2]	Phytotoxicity [3]	also measured
CS(=O)(=O)c1nc(Cl)c(Cc2ccccc2)c(N2CCCC2)n1	–	–	–	melting point: 136 to 138 °C
CSc1nc(Cl)c(Cc2ccccc2)c(N2CCCC2)n1 [Compound 1-165, 5-benzyl-4-chloro-2-methylthio-6-pyrrolidin-1-yl-pyrimidine]	–	–	–	Phytotoxicity (Tomato (variety: REGINA)): No phytotoxicity was observed; melting point: 97 to 99 °C
Clc1ncnc(N2CCCC2)c1Cc1ccccc1 [Compound 1-5, 5-benzyl-4-chloro-6-pyrrolidin-1-yl-pyrimidine]	No phytotoxicity was observed	No phytotoxicity was observed	No phytotoxicity was observed	Phytotoxicity (Tomato (variety: REGINA)): No phytotoxicity was observed
CC1CCCN1c1ncnc(Cl)c1Cc1ccccc1 (stereo not shown) [Compound 1-11]	No phytotoxicity was observed	No phytotoxicity was observed	–	–
Fc1cccc(Cc2c(Cl)ncnc2N2CCCC2)c1 [Compound 1-56, 4-Chloro-5-(3-fluorobenzyl)-6-pyrrolidin-1-yl-pyrimidine]	No phytotoxicity was observed	No phytotoxicity was observed	No phytotoxicity was observed	–
Clc1ncnc(N2CCSC2)c1Cc1ccccc1 [Compound 1-37]	No phytotoxicity was observed	–	–	–
Fc1ccc(Cc2c(Cl)ncnc2N2CCCC2)cc1 [Compound 1-68]	No phytotoxicity was observed	No phytotoxicity was observed	–	–
CC(C)(C)c1nc(Cl)c(Cc2ccccc2)c(N2CCCC2)n1 [Compound 1-121]	–	–	No phytotoxicity was observed	–
Cc1cc(C)n(-c2nc(C)nc(Cl)c2Cc2ccccc2)n1 [Compound 1-523]	–	–	No phytotoxicity was observed	–
CC1CCCN1c1ncnc(Cl)c1Cc1cc(F)cc(F)c1 (stereo not shown) [Compound 1-17]	No phytotoxicity was observed	No phytotoxicity was observed	–	–
Clc1cccc(Cc2c(Cl)ncnc2N2CCSC2)c1 [Compound 1-41]	–	–	No phytotoxicity was observed	–
OC[C@H]1CCCN1c1ncnc(Cl)c1Cc1ccccc1 [Compound 1-22]	No phytotoxicity was observed	–	–	–
Fc1ccccc1Cc1c(Cl)ncnc1N1CCCC1 [Compound 1-45]	No phytotoxicity was observed	–	–	–
CC1C=CC(C)N1c1ncnc(Cl)c1Cc1ccccc1 (stereo not shown) [Compound 1-36]	No phytotoxicity was observed	–	No phytotoxicity was observed	–
CC1CCCN1c1ncnc(Cl)c1Cc1ccc(F)c(F)c1 (stereo not shown) [Compound 1-16]	No phytotoxicity was observed	No phytotoxicity was observed	–	–
Clc1nc(-n2cncn2)nc(N2CCCC2)c1Cc1ccccc1 [Compound 1-435]	–	–	No phytotoxicity was observed	–
COc1ncnc(N2CCCC2)c1Cc1cccc(F)c1	–	–	–	melting point: 74 to 76 °C
Clc1cccc(Cc2c(Cl)ncnc2N2CCCC2)c1 [Compound 1-57]	No phytotoxicity was observed	No phytotoxicity was observed	–	–
CC(c1ccccc1)c1c(Cl)ncnc1N1CCCC1 (racemic) [Compound 1-6]	–	No phytotoxicity was observed	–	–
CC1CCCN1c1ncnc(Cl)c1Cc1cccc(Cl)c1 (stereo not shown) [Compound 1-15]	No phytotoxicity was observed	No phytotoxicity was observed	–	–
Clc1nc(-c2ccccn2)nc(N2CCCC2)c1Cc1ccccc1 [Compound 1-238]	No phytotoxicity was observed	–	–	Phytotoxicity (Tomato (variety: REGINA)): No phytotoxicity was observed
Clc1nc(-c2ccncc2)nc(N2CCCC2)c1Cc1ccccc1 [Compound 1-304]	–	–	No phytotoxicity was observed	–
Fc1cc(F)cc(Cc2c(Cl)ncnc2N2CCCC2)c1 [Compound 1-87]	No phytotoxicity was observed	No phytotoxicity was observed	–	–
Clc1ccccc1Cc1c(Cl)ncnc1N1CCCC1 [Compound 1-46]	–	No phytotoxicity was observed	No phytotoxicity was observed	–
CC1CCCN1c1ncnc(Cl)c1Cc1cccc(F)c1 (stereo not shown) [Compound 1-14]	No phytotoxicity was observed	No phytotoxicity was observed	No phytotoxicity was observed	–
Clc1nc(-c2cnccn2)nc(N2CCCC2)c1Cc1ccccc1 [Compound 1-311]	–	–	No phytotoxicity was observed	–
Clc1ncnc(N2CC=CC2)c1Cc1ccccc1 [Compound 1-33]	No phytotoxicity was observed	–	No phytotoxicity was observed	–
Fc1ccc(Cc2c(Cl)ncnc2N2CCCC2)cc1F [Compound 1-86]	No phytotoxicity was observed	No phytotoxicity was observed	–	–
Fc1cccc(Cc2cncnc2N2CCCC2)c1 [Compound 1-102, 5-(3-fluorobenzyl)-4-pyrrolidin-1-yl-pyrimidine]	No phytotoxicity was observed	–	No phytotoxicity was observed	melting point: 51 to 54 °C
Clc1ncnc(N2CCC=N2)c1Cc1ccccc1 [Compound 1-42]	–	–	No phytotoxicity was observed	–

Source: US20070167421A1, “Pyrimidine derivatives and use thereof as agricultural and horticultural fungicides” (priority 2004, published 2007)
